pIC50: −log10 of the molar value.

One test concerns the target EGFR (UniProt P00533).
The next test concerns the target EGFR (murine) (UniProt P00533). To be noted: nih3t3/c7.

Chain of EGFR (murine) (P00533 whole entry, looked up): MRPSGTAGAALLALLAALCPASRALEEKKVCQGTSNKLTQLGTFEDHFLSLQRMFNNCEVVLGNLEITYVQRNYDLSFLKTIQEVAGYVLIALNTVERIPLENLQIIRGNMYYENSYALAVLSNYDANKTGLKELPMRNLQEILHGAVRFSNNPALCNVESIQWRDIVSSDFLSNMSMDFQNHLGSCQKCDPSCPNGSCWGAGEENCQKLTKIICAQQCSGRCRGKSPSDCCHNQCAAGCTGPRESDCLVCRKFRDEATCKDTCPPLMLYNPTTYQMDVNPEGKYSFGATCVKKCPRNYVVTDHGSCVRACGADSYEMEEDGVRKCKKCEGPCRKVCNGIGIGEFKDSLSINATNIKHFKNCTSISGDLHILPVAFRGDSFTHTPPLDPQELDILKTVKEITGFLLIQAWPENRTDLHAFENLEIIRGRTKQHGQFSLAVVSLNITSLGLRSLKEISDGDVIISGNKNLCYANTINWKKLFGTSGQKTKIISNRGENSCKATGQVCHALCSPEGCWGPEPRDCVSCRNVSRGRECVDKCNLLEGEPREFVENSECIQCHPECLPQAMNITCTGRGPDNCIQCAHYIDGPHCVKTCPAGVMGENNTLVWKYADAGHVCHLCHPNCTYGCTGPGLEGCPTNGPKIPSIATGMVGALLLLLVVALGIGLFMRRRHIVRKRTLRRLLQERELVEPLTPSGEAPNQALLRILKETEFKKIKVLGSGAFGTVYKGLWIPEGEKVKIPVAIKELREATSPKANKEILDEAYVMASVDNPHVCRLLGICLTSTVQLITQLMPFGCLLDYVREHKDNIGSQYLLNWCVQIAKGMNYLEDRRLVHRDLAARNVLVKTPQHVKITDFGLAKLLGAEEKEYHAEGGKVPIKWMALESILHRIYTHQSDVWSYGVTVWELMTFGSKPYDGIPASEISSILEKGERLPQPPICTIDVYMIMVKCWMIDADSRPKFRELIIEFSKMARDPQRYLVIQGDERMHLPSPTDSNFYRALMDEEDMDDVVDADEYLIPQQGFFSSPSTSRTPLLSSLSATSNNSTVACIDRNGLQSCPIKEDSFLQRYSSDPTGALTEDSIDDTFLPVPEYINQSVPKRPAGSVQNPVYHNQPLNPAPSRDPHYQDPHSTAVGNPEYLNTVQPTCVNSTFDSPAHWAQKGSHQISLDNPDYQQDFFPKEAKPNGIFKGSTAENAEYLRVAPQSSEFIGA
Chain of EGFR (P00533 whole entry, looked up): as above

Consider `COc1cc2c(cc1OC)/C(=C1\C(=O)Nc3ccccc31)CC2`, for which the negative logarithm of the IC50 (pIC50) against EGFR was less than 4.60.

On EGFR, `O=C1Nc2ccccc2/C1=C1\CCc2cc(Br)ccc21` gave a pIC50 of less than 4.00.

As to `O=C1Nc2ccccc2/C1=C1\CCc2ccccc21`, the pIC50 with EGFR (murine) and on EGFR was less than 4.00 in each case.

Consider `Nc1ccc2c(c1)CC/C2=C1/C(=O)Nc2ccccc21`, for which, on EGFR, the pIC50 was less than 4.00.

On EGFR, `CN(C)c1ccc2c(c1)CC/C2=C1/C(=O)Nc2ccccc21` showed a negative-log IC50 (pIC50) of less than 4.00.

Take `CC1C/C(=C2/C(=O)Nc3ccccc32)c2ccccc21` (centres undefined): the negative logarithm of the IC50 (pIC50) against EGFR was less than 4.00.

`Cc1cccc2c1CC/C2=C1/C(=O)Nc2ccccc21`: at EGFR, the pIC50 is less than 4.00.

As to `COc1ccc2c(c1)CC/C2=C1/C(=O)Nc2ccccc21`, the negative-log IC50 (pIC50) against EGFR was less than 4.00.

Take `O=C1Nc2ccccc2/C1=C1\CCc2cc(Cl)ccc21`: at EGFR, the negative logarithm of the IC50 (pIC50) is less than 4.00.

In turn, `COc1ccc2c(c1)/C(=C1\C(=O)Nc3ccccc31)CC2` gave a negative-log IC50 (pIC50) against EGFR of less than 4.00.

As to `COc1ccc2c(c1)C(CC(=O)O)C/C2=C1/C(=O)Nc2ccccc21` (centres undefined), the negative logarithm of the IC50 (pIC50) in the test with EGFR (murine) and against EGFR was less than 4.00 each time.

At EGFR, `O=C1Nc2ccccc2/C1=C1\CCc2cc(N3CCCCC3)ccc21` gave a pIC50 of less than 4.00.

As a reminder, the pIC50 is −log10 of the IC50, conventionally taken in molar units. Read a low pIC50 as a large IC50.

Source of the values: the Kinase Knowledgebase extract (Sharma et al. 2016).
